The record followed here is US9505749B2, “Quinazolinone compounds and derivatives thereof” (AMGEN INC., priority 2012, dated 2016).

For test [1], the system named is total β-catenin in SW480 colorectal cells. The test is described as follows: Total β-catenin MSD 96-well plate assay for SW480 cells. The conditions noted are these: Homo sapiens, SW480, read-out: SW480-Total beta-catenin (TBC) IC50 IP.
The next test concerns the target PARP2 (Homo sapiens (Human), UniProt Q9UGN5). The test is described as follows: PARP2 biochemical assay (BPS kit).
Test [2] has as its target 6×HIS-tankyrase1 (1091-1325) (Homo sapiens (Human), UniProt O95271). The test is described as follows: Tankyrase 1 biochemical assay (AlphaLisa, PARsylation). As to conditions: 400 nM NAD, 60 minutes at RT; read-out: TNKS1 IC50. Background: Bead proximity is the source of the signal in Alpha formats.
In test [3] the test system is Axin2 accumulation in SW480 cells. The test is described as follows: Axin2 384 immunofluorescence assay. In kind it is cell-based. As to conditions: Homo sapiens; SW480 cells, 24 hours; read-out: Axin2 384 IF EC50.
The next test addresses PARP1 (Homo sapiens (Human), UniProt P09874). The test is described as follows: PARP1 biochemical assay (Trevigen kit). From the text:
PARP1 biochemical assay was purchased as a kit from Trevigen (cat.#4676-096-K) and used per manufacturers recommendations.

Test [4] has as its target 6×HIS-tankyrase 2 (946-1162) (Homo sapiens (Human), UniProt Q9H2K2). The test is described as follows: Tankyrase 2 biochemical assay (AlphaLisa, PARsylation). The conditions noted are these: 250 nM NAD; read-out: TNKS2 IC50.

Sequence of 6×HIS-tankyrase1 (1091-1325) (O95271 1091-1325): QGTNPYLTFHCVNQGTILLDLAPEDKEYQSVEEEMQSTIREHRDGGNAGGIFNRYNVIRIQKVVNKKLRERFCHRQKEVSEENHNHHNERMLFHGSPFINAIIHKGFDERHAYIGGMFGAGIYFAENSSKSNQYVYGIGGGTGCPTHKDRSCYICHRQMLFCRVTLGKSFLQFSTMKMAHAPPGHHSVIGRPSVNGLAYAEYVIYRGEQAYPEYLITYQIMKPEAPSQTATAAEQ
Sequence of PARP1 (P09874 whole entry): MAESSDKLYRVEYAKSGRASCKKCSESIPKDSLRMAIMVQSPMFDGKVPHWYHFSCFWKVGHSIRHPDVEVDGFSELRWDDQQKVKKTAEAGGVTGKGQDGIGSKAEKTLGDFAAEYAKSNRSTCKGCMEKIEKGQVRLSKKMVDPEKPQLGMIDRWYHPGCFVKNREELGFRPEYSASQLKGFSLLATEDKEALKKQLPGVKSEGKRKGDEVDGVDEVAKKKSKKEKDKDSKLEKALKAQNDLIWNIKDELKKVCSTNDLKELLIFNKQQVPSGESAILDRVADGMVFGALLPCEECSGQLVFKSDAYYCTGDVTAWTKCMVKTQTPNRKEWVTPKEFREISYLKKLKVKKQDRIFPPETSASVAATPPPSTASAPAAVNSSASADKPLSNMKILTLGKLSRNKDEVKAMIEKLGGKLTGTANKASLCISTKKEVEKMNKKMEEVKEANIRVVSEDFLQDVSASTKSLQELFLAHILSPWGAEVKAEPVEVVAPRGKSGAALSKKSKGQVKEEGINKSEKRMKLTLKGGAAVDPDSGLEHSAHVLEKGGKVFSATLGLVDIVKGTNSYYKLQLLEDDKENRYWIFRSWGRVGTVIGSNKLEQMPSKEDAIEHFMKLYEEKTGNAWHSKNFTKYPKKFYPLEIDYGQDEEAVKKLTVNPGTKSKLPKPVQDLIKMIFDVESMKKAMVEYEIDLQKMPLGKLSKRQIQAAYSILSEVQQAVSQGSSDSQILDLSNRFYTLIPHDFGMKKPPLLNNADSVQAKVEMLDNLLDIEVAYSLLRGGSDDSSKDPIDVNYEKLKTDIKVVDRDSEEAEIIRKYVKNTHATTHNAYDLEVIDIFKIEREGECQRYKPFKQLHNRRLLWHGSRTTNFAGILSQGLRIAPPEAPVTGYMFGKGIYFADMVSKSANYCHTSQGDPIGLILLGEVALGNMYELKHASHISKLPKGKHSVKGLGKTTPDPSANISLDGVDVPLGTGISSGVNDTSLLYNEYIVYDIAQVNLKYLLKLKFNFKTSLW
Sequence of 6×HIS-tankyrase 2 (946-1162) (Q9H2K2 946-1162): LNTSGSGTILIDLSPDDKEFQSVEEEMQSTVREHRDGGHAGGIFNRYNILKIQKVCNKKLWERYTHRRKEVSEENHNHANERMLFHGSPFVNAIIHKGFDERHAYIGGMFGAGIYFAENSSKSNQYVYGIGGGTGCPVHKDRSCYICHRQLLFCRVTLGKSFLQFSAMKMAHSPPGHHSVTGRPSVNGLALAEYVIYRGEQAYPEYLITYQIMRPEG
Sequence of PARP2 (Q9UGN5 whole entry): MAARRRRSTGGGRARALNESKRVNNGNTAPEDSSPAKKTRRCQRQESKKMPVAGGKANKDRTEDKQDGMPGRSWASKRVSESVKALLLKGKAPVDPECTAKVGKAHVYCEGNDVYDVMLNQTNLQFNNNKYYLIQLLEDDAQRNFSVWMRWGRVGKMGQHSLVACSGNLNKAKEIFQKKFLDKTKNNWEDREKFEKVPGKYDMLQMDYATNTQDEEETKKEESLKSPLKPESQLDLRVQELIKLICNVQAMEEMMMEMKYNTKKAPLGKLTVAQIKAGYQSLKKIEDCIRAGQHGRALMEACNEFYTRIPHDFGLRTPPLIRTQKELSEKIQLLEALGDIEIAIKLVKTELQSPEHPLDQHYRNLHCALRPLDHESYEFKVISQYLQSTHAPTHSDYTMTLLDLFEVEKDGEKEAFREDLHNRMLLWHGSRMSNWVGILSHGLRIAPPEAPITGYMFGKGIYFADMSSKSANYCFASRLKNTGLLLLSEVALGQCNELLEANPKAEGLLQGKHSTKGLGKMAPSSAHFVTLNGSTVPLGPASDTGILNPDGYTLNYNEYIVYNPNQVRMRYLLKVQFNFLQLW

Turning to `COc1ccc(-c2nnc([C@H]3CC[C@H](NC(=O)CCSc4nc5ccccc5c(=O)[nH]4)CC3)o2)cc1` [Example 121, N-((1r,4r)-4-(5-(4-methoxyphenyl)-1,3,4-oxadiazol-2-yl)cyclohexyl)-3-((4-oxo-3,4-dihydroquinazolin-2-yl)thio)propanamide], the IC50 was determined as 1.1 nM in test [1]; 6780 nM on PARP2; 0.0724 nM in test [2]; 4430 nM against PARP1; 18.1 nM in test [4]. For the same compound, the EC50 in test [3] worked out at 1.98 nM.

With `N#Cc1ccc2c(c1)[nH]c(=O)n2C1CCN(C(=O)CCCc2nc3ccccc3c(=O)[nH]2)CC1` [Example 68, 2-oxo-1-(1-(4-(4-oxo-3,4-dihydro-2-quinazolinyl)butanoyl)-4-piperidinyl)-2,3-dihydro-1H-benzimidazole-5-carbonitrile], the IC50 came to 161 nM in test [1]; 227 nM on PARP2; 0.783 nM in test [2]; 636 nM against PARP1; 0.292 nM in test [4]. Also, in test [3], the EC50 came out at 239 nM.

In the case of `Cc1cccc(-c2nnc(C3CCN(C(=O)CCCc4nc5ccccc5c(=O)[nH]4)CC3)o2)c1` [Example 22, 2-(4-oxo-4-(4-(5-(m-tolyl)-1,3,4-oxadiazol-2-yl)piperidin-1-yl)butyl)quinazolin-4(3H)-one], the IC50 in test [1] stood at 217 nM; on PARP2, 1590 nM; in test [2], 19.4 nM; on PARP1, 3130 nM; in test [4], 4.13 nM. Besides, the EC50 in test [3] was found to be 333 nM.

Take `N#Cc1ccc2c(c1)[nH]c(=O)n2[C@H]1CC[C@H](NC(=O)CCSc2nc3ccccc3c(=O)[nH]2)CC1` [Example 104, N-((1r,4r)-4-(5-cyano-2-oxo-2,3-dihydro-1H-benzo[d]imidazol-1-yl)cyclohexyl)-3-((4-oxo-3,4-dihydroquinazolin-2-yl)thio)propanamide]: the IC50 in test [1] was 8.42 nM; on PARP2, 1180 nM; in test [2], 0.045 nM; on PARP1, 1350 nM; in test [4] it was 1.31 nM. For the same compound, the EC50 in test [3] was 9.45 nM.

Take `O=C(CCCc1nc2ccccc2c(=O)[nH]1)N1CCC(c2n[nH]c3ccccc23)CC1` [Example 48, 2-(4-(4-(1H-indazol-3-yl)-1-piperidinyl)-4-oxobutyl)-4(3H)-quinazolinone trifluoroacetic acid]: the IC50 is 111 nM in test [1]; 1350 nM at PARP2; 5.15 nM in test [2]; 1980 nM against PARP1; 0.596 nM in test [4]. Besides, the EC50 in test [3] was 417 nM.

Consider `N#Cc1cc(O[C@H]2CC[C@H](NC(=O)CCCc3nc4ccccc4c(=O)[nH]3)CC2)ccc1Cl` [Example 63, N-(trans-4-(4-chloro-3-cyanophenoxy)cyclohexyl)-4-(4-oxo-3,4-dihydro-2-quinazolinyl)butanamide], for which the IC50 in test [1] worked out at 211 nM; at PARP2, 802 nM; in test [2], 2.33 nM; at PARP1, 586 nM; in test [4] it was 0.653 nM. In addition, in test [3], the EC50 stood at 270 nM.

For the compound `O=C(CCCc1nc2ccccc2c(=O)[nH]1)N1CCC(n2c(=O)[nH]c3cc(F)ccc32)CC1` [Example 51, 2-(4-(4-(5-fluoro-2-oxo-2,3-dihydro-1H-benzimidazol-1-yl)-1-piperidinyl)-4-oxobutyl)-4(3H)-quinazolinone trifluoroacetic acid], the IC50 stood at 348 nM in test [1]; 553 nM on PARP2; 4.09 nM in test [2]; 894 nM against PARP1; 0.517 nM in test [4]. Besides, the EC50 in test [3] worked out at 661 nM.

Consider `O=C(CCCc1nc2ccccc2c(=O)[nH]1)N1CCC(n2c(=O)[nH]c3ccccc32)CC1` [Example 41, 2-(4-oxo-4-(4-(2-oxo-2,3-dihydro-1H-benzimidazol-1-yl)-1-piperidinyl)butyl)-4(3H)-quinazolinone trifluoroacetic acid], for which the IC50 is 1710 nM in test [1]; 500 nM at PARP2; 8.05 nM in test [2]; 1490 nM at PARP1; 4.91 nM in test [4]. Moreover, the EC50 in test [3] was determined as 3380 nM.

On to `N#Cc1ccc(O[C@H]2CC[C@H](NC(=O)CCCc3nc4ccccc4c(=O)[nH]3)CC2)cc1` [Example 78, N-(trans-4-(4-cyanophenoxy)cyclohexyl)-4-(4-oxo-3,4-dihydro-2-quinazolinyl)butanamide], for which the IC50 was 7.14 nM in test [1]; 246 nM against PARP2; 2.23 nM in test [2]; 558 nM against PARP1; 0.434 nM in test [4]. The EC50 in test [3] amounted to 49.2 nM.

Take `O=C(CCCc1nc2ccccc2c(=O)[nH]1)N[C@H]1CC[C@H](Oc2ccc(Cl)cc2)CC1` [Example 79, N-(trans-4-(4-chlorophenoxy)cyclohexyl)-4-(4-oxo-3,4-dihydro-2-quinazolinyl)butanamide]: the IC50 in test [1] was determined as 42.3 nM; against PARP2, 292 nM; in test [2], 2.85 nM; at PARP1, 2550 nM; in test [4] it was 0.614 nM. Moreover, the EC50 in test [3] turned out to be 192 nM.

Consider `O=C(CCSc1nc2ccccc2c(=O)[nH]1)N[C@H]1CC[C@H](c2nnc(-c3ccc(F)c(Cl)c3)o2)CC1` [Example 122, N-((1r,4r)-4-(5-(3-chloro-4-fluorophenyl)-1,3,4-oxadiazol-2-yl)cyclohexyl)-3-((4-oxo-3,4-dihydroquinazolin-2-yl)thio)propanamide], for which the IC50 was 3.04 nM in test [1]; 7690 nM against PARP2; 0.153 nM in test [2]; over 9440 nM on PARP1; 1.38 nM in test [4]. The EC50 in test [3] was 4.47 nM.

Turning to `Cc1ccc2[nH]c(=O)n(C3CCN(C(=O)CCCc4nc5ccccc5c(=O)[nH]4)CC3)c2c1` [Example 7, 2-(4-(4-(6-methyl-2-oxo-2,3-dihydro-1H-benzimidazol-1-yl)-1-piperidinyl)-4-oxobutyl)-4(3H)-quinazolinone], the IC50 in test [1] came out at 626 nM; against PARP2, 192 nM; in test [2], 6.94 nM; against PARP1 it was 1930 nM; in test [4], 3.38 nM. Moreover, the EC50 in test [3] came to 651 nM.

On to `O=C(CCCc1nc2ccccc2c(=O)[nH]1)N1CCC(c2nnc(-c3cccnc3)o2)CC1` [Example 13, 2-(4-oxo-4-(4-(5-(3-pyridinyl)-1,3,4-oxadiazol-2-yl)-1-piperidinyl)butyl)-4(3H)-quinazolinone], for which the IC50 in test [1] was found to be 358 nM; against PARP2, 1240 nM; in test [2], 42.8 nM; on PARP1, 7090 nM; in test [4], 6.54 nM. In addition, the EC50 in test [3] came to 461 nM.

On to `O=C(CCCc1nc2ccccc2c(=O)[nH]1)N1CCC(c2nnc(-c3ccc(Cl)cc3)o2)CC1` [Example 4, 2-(4-(4-(5-(4-chlorophenyl)-1,3,4-oxadiazol-2-yl)piperidin-1-yl)-4-oxobutyl)quinazolin-4(3H)-one], for which the IC50 was 36.4 nM in test [1]; 961 nM at PARP2; 11 nM in test [2]; 2410 nM on PARP1; 2.06 nM in test [4]. Besides, the EC50 in test [3] was 210 nM.

On to `O=C(CCCc1nc2ccccc2c(=O)[nH]1)N[C@H]1CC[C@H](Oc2cccnc2)CC1` [Example 59, 4-(4-oxo-3,4-dihydro-2-quinazolinyl)-N-(trans-4-(3-pyridinyloxyl)cyclohexyl)butanamide], for which the IC50 in test [1] was 208 nM; against PARP2, 371 nM; in test [2], 11.8 nM; against PARP1, 1900 nM; in test [4] it was 2.39 nM. In addition, the EC50 in test [3] amounted to 951 nM.

`O=C(CCSc1nc2ccc(F)cc2c(=O)[nH]1)N[C@H]1CC[C@H](c2nnc(-c3ccccc3)o2)CC1` [Example 145, 3-((6-fluoro-4-oxo-3,4-dihydro-2-quinazolinyl)sulfanyl)-N-(trans-4-(5-phenyl-1,3,4-oxadiazol-2-yl)cyclohexyl)propanamide]: the IC50 in test [1] was determined as 7.66 nM; on PARP2, 1120 nM; in test [2], 0.148 nM; on PARP1 it was 3540 nM; in test [4], 5.02 nM.

Take `O=C(CCSc1nc2ccccc2c(=O)[nH]1)N1CCN(c2n[nH]c3ccccc23)CC1` [Example 94, 2-((3-(4-(1H-indazol-3-yl)-1-piperazinyl)-3-oxopropyl)sulfanyl)-4(3H)-quinazolinone]: the IC50 in test [1] was 2220 nM; against PARP2 it was 89.5 nM; in test [2] it was 12.1 nM; on PARP1 it was 1230 nM; in test [4] it was 6.3 nM.

On to `O=C(CCCc1nc2ccccc2c(=O)[nH]1)N[C@H]1CC[C@H](OCc2ccccc2)C1` (stereo in doubt) [Example 62, N-((1R,3R)-3-(benzyloxy)cyclopentyl)-4-(4-oxo-3,4-dihydroquinazolin-2-yl)butanamide+N-((1S,3S)-3-(benzyloxy)cyclopentyl)-4-(4-oxo-3,4-dihydroquinazolin-2-yl)butanamide], for which the IC50 in test [1] is over 10000 nM; against PARP2, 2840 nM; in test [2], 587 nM; at PARP1, 7680 nM; in test [4], 138 nM.

Take `O=C(CCSc1nc2ccccc2c(=O)[nH]1)N1CCC(n2c(=O)[nH]c3cc(Cl)ccc32)CC1` [Example 82, 2-((3-(4-(5-chloro-2-oxo-2,3-dihydro-1H-benzo[d]imidazol-1-yl)piperidin-1-yl)-3-oxopropyl)thio)quinazolin-4(3H)-one]: the IC50 is 3310 nM in test [1]; 99.4 nM on PARP2; 128 nM in test [2]; 1470 nM against PARP1; 73.7 nM in test [4].

One may read the IC50 as the midpoint of a concentration-inhibition curve. The EC50 is the concentration giving half of the maximal effect.
